According to PMC8006935, “Study of Combinatorial Drug Synergy of Novel Acridone Derivatives With Temozolomide Using in-silico and in-vitro Methods in the Treatment of Drug-Resistant Glioma” (Frontiers in Oncology, 2021):

Assays:
[1] = tested on: Drug resistant cancer cells (CR), T-98; assay: Mathematical tumor growth model simulation and Bliss synergy, drug resistant cancer cells; conditions: combination TMZ + AC26
[2] = Sulforhodamine B assay, Vero control cells; assay type: cell-based; conditions: African green monkey, Vero cells (normal kidney epithelial cells), SRB, read-out: Vero cell Line CC50
Procedure: In order to test the growth inhibition potential of the TMZ and Acridone derivatives on Glioma, the U-87 (Uppsala 87) Glioma cell lines and T-98 (Temozolomide resistant) Glioma cell lines were treated with Temozolomide (TMZ) and Acridone derivatives AC2, AC7, and AC26. The African Green Monkey Kidney Vero cell lines were used as control for the study. The Vero cell lines were obtained from the National Center for Cell Sciences (NCCS), Pune, while the U-87 and T-98 cell lines were carried in the lab of Dr. GJ Peters, Cancer Center Amsterdam (CCA), VU University Medical Center, Amsterdam, Netherlands. The Mycoplasma testing was done by using the Universal Mycoplasma Detection Kit (ATCC® 30-1012K™) every 6 months. The Vero cell lines have been used as control as they are normal kidney epithelial cells and are non-cancerous in nature. The Vero cell lines have been routinely used for testing cytotoxicity of small molecules by various researchers ([22], [23]). Also, in our previous study, Vero cell lines have been used for testing safety and efficacy of Acridone derivatives for Lung, Cervical, and Breast Cancer studies ([13]).
Cell viability was found using the Sulforhodamine B (SRB) assay to measure the cellular protein content which provides better sensitivity in comparison to MTT assay ([24]). Moreover, as this method is dependent on the property of the SRB dye, it acts by binding to proteins under slightly acidic conditions and can be exposed to basic conditions for its extraction. The resulting amount of bound dye is then utilized as a proxy for cell mass ([25]). This cell mass can then be extrapolated to measure cell growth.
Glioma cells were cultured in Gibco (RPMI 1640) complemented with 10% fetal calf serum (Gibco). The cultures were then treated with trypsin-EDTA in order to detach/separate the cells from their culture flasks. The quickly proliferating cells were harvested, counted and plated at suitable concentrations in 96-well microplates. These microplates were subsequently incubated for 24 h. After incubation, drug compounds were dissolved in the culture media and placed in 96 well plates in triplicates, which were again incubated at 37°C under 5% CO2 for 72 h. 72 h later, the plates were removed and the cells were treated with cold Trichloroacetic acid (TCA) to fix the cultures and. […] Thereafter, absorbance of the solution was measured at 540 nm utilizing a microplate reader. Absorbance readings (triplicate values) recorded were used to calculate percentage growth inhibition due to the effect of drugs using the following equations.
% Cell growth = Absorbance sample/Absorbance of control or untreated × 100 […]
The IC50 was calculated based on the log graph sheet which was developed in-house at the CCA, VU University Medical Center. […]

[3] = Acute Oral Toxicity - Fixed Dose procedure; assay type: in vivo
Procedure: Animal study was conducted for acridone derivatives AC2, AC7, and AC26 alone and in combination with Temozolomide for Acute Oral Toxicity - Fixed Dose procedure. The Institutional Animal Ethics Committee bearing CPCSEA/IAEC/P-52/2016 was approved for undertaking the study. Acute oral toxicity was conducted on female albino Wistar rats for 8–12 weeks and were maintained at 25 ± 2 °C in a conditioned room with 50–60% of humidity and free access to food and water was given. Rats were kept for fasting overnight (12 h) before dosing and weights were recorded periodically. Rats in two groups were given acridone derivatives alone at a dose of […], rats in two groups were given a combination of Temozolomide : acridone derivatives at dose of 10:1 mg/kg and 15:1.5 mg/kg body weight and one group was kept as control. Dose of Temozolomide was taken as per previously published article ([50]). Compounds alone and combination were suspended in 2.0% of Tween 80 in normal saline and control group was taken for vehicle only. After administering the compound, food was not provided for 3 h. All the rats were monitored periodically for 1 h upto 12 h on the 1st day and thereafter twice in a day for mortality, behavioral changes, signs and symptoms of toxicity for 14 days. Individual weights of rats were taken for all the 14 days and study was conducted twice for each dose.

[4] = earlier studies, no reference given; cited from earlier work
[5] = design: method as in PMID 21565270; conditions: cited from earlier work
[6] = pKa by UV-Vis spectrophotometer; assay type: physicochemical
Procedure: Characterization of acridone derivatives AC2, AC7, and AC26 were carried out by using all the chemicals of analytical grade. Hydrochloric acid and sodium hydroxide were procured from Sisco Research Lab Pvt. Ltd (Mumbai, India). Potassium dihydrogen orthophosphate, methanol and ortho-phosphoric acid (85% pure) was received from Loba Chemie Pvt. Ltd. (Mumbai, India). Sodium chloride was received from SD Fine-Chem Limited (Mumbai, India). Milli-pore water was used throughout the study. Chemical information like the molecular weight of compounds was determined by obtaining ESI-MS spectroscopy using methanol as solvent. pH calculated by using pH analyzer (Lab India) and PKa determined by using UV-Vis spectrophotometer (Shimadzu, Japan). Melting point was calculated by Digital Melting point apparatus (Veego India). Lipophilicity was determined by using software like Chem Draw 15 and ALGOPS 2.1 ([16]). In order to determine the Blood Brain Barrier (BBB) permeability of the compounds, we have used Online BBB Predictor (https://www.cbligand.org/BBB/predictor.php) using SVM Machine Learning algorithm and PubChem as the fingerprint ([17]).

SMILES: CC(=NNC(=O)c1cccc2c(=O)c3ccccc3[nH]c12)c1ccccc1O [AC26, N'(1-(2-hydroxyphenyl)ethylidene)-9-oxo-9,10-dihydroacridine-4-carbohydrazide]
- Fold change = final IC50/initial IC50 [1]: 0.88
- CC50 at 72 h [2]: 66.1 µM
- Body weight (g) Day 0 ([3]; 300 mg/kg oral): 178 ± 10 g
- Body weight (g) Day 1 ([3]; 300 mg/kg oral): 182 ± 8 g
- Body weight (g) Day 2 ([3]; 300 mg/kg oral): 183 ± 12 g
- Body weight (g) Day 3 ([3]; 300 mg/kg oral): 184 ± 16 g
- Body weight (g) Day 4 ([3]; 300 mg/kg oral): 187 ± 10 g
- Body weight (g) Day 5 ([3]; 300 mg/kg oral): 189 ± 16 g
- Body weight (g) Day 6 ([3]; 300 mg/kg oral): 191 ± 12 g
- Body weight (g) Day 7 ([3]; 300 mg/kg oral): 194 ± 18 g
- Body weight (g) Day 8 ([3]; 300 mg/kg oral): 196 ± 12 g
- Body weight (g) Day 9 ([3]; 300 mg/kg oral): 199 ± 10 g
- Body weight (g) Day 10 ([3]; 300 mg/kg oral): 201 ± 14 g
- Body weight (g) Day 11 ([3]; 300 mg/kg oral): 202 ± 16 g
- Body weight (g) Day 12 ([3]; 300 mg/kg oral): 205 ± 12 g
- Body weight (g) Day 13 ([3]; 300 mg/kg oral): 207 ± 8 g
- Body weight (g) Day 14 ([3]; 300 mg/kg oral): 209 ± 18 g
- Body weight (g) Day 0 ([3]; 2000 mg/kg oral): 181 ± 11 g
- Body weight (g) Day 1 ([3]; 2000 mg/kg oral): 182 ± 15 g
- Body weight (g) Day 2 ([3]; 2000 mg/kg oral): 185 ± 10 g
- Body weight (g) Day 3 ([3]; 2000 mg/kg oral): 188 ± 11 g
- Body weight (g) Day 4 ([3]; 2000 mg/kg oral): 189 ± 18 g
- Body weight (g) Day 5 ([3]; 2000 mg/kg oral): 193 ± 22 g
- Body weight (g) Day 6 ([3]; 2000 mg/kg oral): 195 ± 16 g
- Body weight (g) Day 7 ([3]; 2000 mg/kg oral): 199 ± 19 g
- Body weight (g) Day 8 ([3]; 2000 mg/kg oral): 200 ± 14 g
- Body weight (g) Day 9 ([3]; 2000 mg/kg oral): 202 ± 10 g
- Body weight (g) Day 10 ([3]; 2000 mg/kg oral): 206 ± 8 g
- Body weight (g) Day 11 ([3]; 2000 mg/kg oral): 207 ± 9 g
- Body weight (g) Day 12 ([3]; 2000 mg/kg oral): 209 ± 4 g
- Body weight (g) Day 13 ([3]; 2000 mg/kg oral): 211 ± 12 g
- Body weight (g) Day 14 ([3]; 2000 mg/kg oral): 215 ± 20 g
- clinical sign of toxicity ([3]; oral, single dose, 14 days observation, female albino Wistar rats): No clinical sign of toxicity was observed
- cardiotoxicity, nephrotoxicity and necrosis [4]: no cardiotoxicity, nephrotoxicity and necrosis
- liver histopathology [4]: minimal hyperchromatic, anaplasia, and cellular infiltration
- cytotoxicity in comparison to the other acridone derivatives [5]: 100 times
- pKa [6]: 6.52
